These results are taken from patent US9926315B2, “Triazolopyridine compounds and methods for the treatment of cystic fibrosis” (Flatley Discovery Lab, LLC, priority 2014, dated 2018).

SMILES strings stand for the structures.

As a reminder, the EC50 is the midpoint of the concentration-response curve. Usually Emax stands for the size of the effect at its maximum, as opposed to the concentration needed.

The target of this experiment is T1, human ΔF508-CFTR (Homo sapiens, UniProt P13569, DEL508-508).
T1 construct: expressed in transfected cells
Kind of experiment: CFTR-YFP High Throughput Assay (HTS YFP flux assay, corrector / potentiator protocols). Format: cell-based. The conditions noted are these: FRT cells stably expressing human ΔF508-CFTR and YFP-H148Q/I152L; for Emax: normalized to positive control, read-out: Emax (% Efficacy, EMax normalized to the positive control). The protocol:
Assays for Detecting and Measuring the Effect of Compounds on dF508-CFTR Channels CFRT-YFP High Throughput Assay: Corrector Assay:
The following protocol is designed to selectively screen small molecule compounds for F508del CFTR corrector activities in the HTS YFP flux assay. In this protocol, the cells are incubated with testing compounds for 24 hours, washed with PBS, stimulated with forskolin and a standard potentiator, and read on a 384-well HTS plate reader, such as the Hamamatsu FDDD-6000.
YFP fluorescence intensity is acquired at high speed before and after iodide buffer is injected to the assay cells. Iodide enters the cells via active CFTR channels in the plasma membrane, and quenches the YFP fluorescence. The rate of fluorescence quenching is proportionally related to the total CFTR activities in the cell membrane. dF508-CFTR corrector accelerates YFP quenching by increasing the number of CFTR molecules in the testing cell plasma membrane.
This method was initially developed for bench top plate readers (Galietta, 2001), and was adapted to the HTS format (Sui, 2010).
Fisher Rat Thyroid (FRT) cells stably expressing both human ΔF508-CFTR and a halide-sensitive yellow fluorescent protein (YFP-H148Q/I152L 25, 22) (Galietta, 2001) were cultured on plastic surface in Coon's modified Ham's F12 medium supplemented with FBS 10%, L-glutamine 2 mM, penicillin 100 U/mL, and streptomycin 100 μg/mL. G418 (0.75-1.0 mg/mL) and zeocin (3.2 μg/mL) were used for selection of FRT cells expressing ΔF508-CFTR and YFP. For primary screening, FRT cells were plated into 384-well black wall, transparent bottom microtiter plates (Costar; Corning Inc.) at a cell density of 20, 000-40, 000 per well. Test compound was applied to the cells at varying concentrations ranging from 2 nM-[…] in either a 2-fold or 3-fold dilution series. Cells were incubated in a cell culture incubator at 37° C. with 5% CO2 for 24-26 h. Assay plates were washed with DPBS media (Thermo, cat#SH30028.02) to remove unbound cells and compound. Stimulation media (25 μL) containing 20 μM Forskolin & 30 μM P3 [6-(Ethyl-phenyl-sulfonyl)-4-oxo-1, 4-dihydro-quinoline-3-carboxylic acid 2-methoxy-benzylamide] in Hams F-12 coon's modified media was added to the plate wells and incubated at room temperature for 60-120 min. 25 μL of HEPES-PBS-I buffer (10 mM HEPES, 1 mM MgCl2, 3 mM KCl, 1 mM CaCl2, 150 mM NaI) was then added and fluorescence quench curves (Excitation 500 nm/Emission 540 nm; exposure 136 ms) were immediately recorded on an FDSS-6000 plate reader (Hamamatsu). Quench rates were derived from least squares fitting of the data (Sui, 2010).
The following protocol is designed to selectively screen small molecule compounds for F508del CFTR potentiator activities in the HTS YFP flux assay. In this protocol, the cells are incubated at 27° C. for 24 hours with homogeneously boosted dF508-CFTR expression in the cell membrane by the low temperature, washed with PBS, stimulated with forskolin, and read on a 384-well HTS plate reader, such as the Hamamatsu […].
YFP fluorescence intensity is acquired at high speed before and after iodide buffer is injected to the assay cells. Iodide enters the cells via active CFTR channels in the plasma membrane, and quenches the YFP fluorescence. The rate of fluorescence quenching is proportionally related to the total CFTR activities in the cell membrane. dF508del-CFTR potentiators accelerate YFP quenching by increasing CFTR activities in the testing cell plasma membrane.
Fisher Rat Thyroid (FRT) cells stably expressing both human ΔF508-CFTR and a halide-sensitive yellow fluorescent protein (YFP-H148Q/I152L 25, 22) (Galietta, 2001) were cultured on plastic surface in Coon's modified Ham's F12 medium supplemented with FBS 10%, L-glutamine 2 mM, penicillin 100 U/mL, and streptomycin 100 μg/mL. G418 (0.75-1.0 mg/mL) and zeocin (3.2 μg/mL) were used for selection of FRT cells expressing ΔF508-CFTR and YFP. […]

T1 sequence (P13569 with tags, fused parts or gaps DEL508-508): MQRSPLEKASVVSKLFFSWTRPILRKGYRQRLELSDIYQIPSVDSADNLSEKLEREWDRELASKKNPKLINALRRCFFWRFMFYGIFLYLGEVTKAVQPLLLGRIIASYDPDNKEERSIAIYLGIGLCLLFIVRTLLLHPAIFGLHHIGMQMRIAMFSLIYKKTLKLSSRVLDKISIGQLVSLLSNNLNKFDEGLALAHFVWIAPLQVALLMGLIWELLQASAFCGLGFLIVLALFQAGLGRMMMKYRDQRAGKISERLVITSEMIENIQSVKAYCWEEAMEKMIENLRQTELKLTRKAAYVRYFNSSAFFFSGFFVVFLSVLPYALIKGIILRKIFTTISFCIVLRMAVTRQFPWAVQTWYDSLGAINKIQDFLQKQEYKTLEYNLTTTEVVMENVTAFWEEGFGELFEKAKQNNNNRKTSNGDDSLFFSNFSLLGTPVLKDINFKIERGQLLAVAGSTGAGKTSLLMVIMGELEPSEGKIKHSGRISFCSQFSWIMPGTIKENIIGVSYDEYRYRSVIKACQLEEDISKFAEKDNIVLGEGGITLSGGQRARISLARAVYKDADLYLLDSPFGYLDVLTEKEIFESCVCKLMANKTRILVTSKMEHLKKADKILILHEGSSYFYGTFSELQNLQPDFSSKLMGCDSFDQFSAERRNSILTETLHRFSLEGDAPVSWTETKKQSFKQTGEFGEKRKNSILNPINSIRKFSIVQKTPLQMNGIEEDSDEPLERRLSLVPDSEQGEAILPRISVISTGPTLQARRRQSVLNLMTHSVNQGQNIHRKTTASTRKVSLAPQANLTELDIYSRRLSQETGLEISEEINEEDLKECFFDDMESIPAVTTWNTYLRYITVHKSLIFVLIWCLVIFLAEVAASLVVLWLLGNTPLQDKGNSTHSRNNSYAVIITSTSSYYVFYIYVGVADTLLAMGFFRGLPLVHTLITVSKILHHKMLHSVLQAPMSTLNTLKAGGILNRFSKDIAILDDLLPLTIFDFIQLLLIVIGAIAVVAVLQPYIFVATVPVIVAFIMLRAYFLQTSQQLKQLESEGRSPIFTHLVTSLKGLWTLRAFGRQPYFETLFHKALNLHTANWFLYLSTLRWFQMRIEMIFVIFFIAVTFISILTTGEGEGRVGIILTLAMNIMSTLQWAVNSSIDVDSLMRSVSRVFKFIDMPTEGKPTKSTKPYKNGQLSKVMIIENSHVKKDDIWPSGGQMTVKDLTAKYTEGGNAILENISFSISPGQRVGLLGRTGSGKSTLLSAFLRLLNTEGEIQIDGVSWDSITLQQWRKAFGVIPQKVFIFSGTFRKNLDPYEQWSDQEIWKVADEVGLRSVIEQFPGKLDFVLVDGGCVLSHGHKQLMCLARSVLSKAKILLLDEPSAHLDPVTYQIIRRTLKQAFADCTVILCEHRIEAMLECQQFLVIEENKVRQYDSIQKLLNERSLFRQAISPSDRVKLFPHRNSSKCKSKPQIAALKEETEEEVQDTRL

Regarding `Cc1ccc([C@@H](C)Nc2nc3ccc(S(=O)(=O)c4ccccc4)cn3n2)cc1` [Example 90], the EC50 was in the range of 1000 to 10000 nM and the Emax lay within 40 to 80%.

Turning to `CCN(CC)S(=O)(=O)c1ccc2nnc(NC3CCCCC3)n2c1` [Example 11], the EC50 was below 1000 nM and the Emax was above 80%.

Regarding `CCN(CC)S(=O)(=O)c1ccn2c(NCC(C)(C)C)nnc2c1` [Example 60, N,N-Diethyl-3-(neopentylamino)-[1,2,4]triazolo[4,3-a]pyridine-7-sulfonamide], the EC50 is below 1000 nM and the maximal effect (Emax) is above 80%.

Take `O=C(CNc1nc2ccc(S(=O)(=O)c3ccccc3)cn2n1)C1CCCCC1` [Example 87]: the EC50 was below 1000 nM and the Emax was above 80%.

As to `O=S(=O)(c1ccccc1)c1ccc2nc(NCC(O)C3CCCCC3)nn2c1` (stereo not shown) [Example 84], the concentration for a half-maximal effect (EC50) was 1000 to 10000 nM and the Emax is above 80%.

In the case of `CCN(CC)S(=O)(=O)c1ccc2nnc(NCc3ccc(N(C)C)cc3)n2c1` [Example 37], the EC50 is below 1000 nM and the Emax was above 80%.

Consider `CCN(CC)S(=O)(=O)c1ccc2nnc(N[C@@H]3C[C@H]4CC[C@@H]3C4)n2c1` [Example 33], for which the EC50 was below 1000 nM and the Emax is above 80%.

For `CCN(CC)S(=O)(=O)c1ccc2nnc(NCc3ccccc3)n2c1` [Example 1, 3-(Benzylamino)-N,N-diethyl-[1,2,4]triazolo[4,3-a]pyridine-6-sulfonamide], the EC50 was below 1000 nM and the Emax was above 80%.

As for `CC(C)N(C(C)C)S(=O)(=O)c1ccc2nnc(N[C@H](C)c3ccccc3)n2c1` [Example 47], the EC50 is below 1000 nM and the Emax fell in the range of 40 to 80%.

In the case of `COc1cccc(S(=O)(=O)c2ccc3nnc(N[C@H](C)c4ccccc4)n3c2)c1` [Example 71], the EC50 is 1000 to 10000 nM and the Emax is above 80%.

Turning to `CCN(CC)S(=O)(=O)c1ccc2nnc(NCc3cccc(C#N)c3)n2c1` [Example 56], the EC50 was below 1000 nM and the Emax was above 80%.

Take `O=S(=O)(c1ccccc1)c1ccc2nc(NCCC3CCCCC3)nn2c1` [Example 88]: the EC50 was below 1000 nM and the maximum response (Emax) is above 80%.

`CCN(CC)S(=O)(=O)c1ccc2nnc(N[C@@H]3CCc4ccccc43)n2c1` [Example 46]: the EC50 is below 1000 nM and the Emax fell in the range of 40 to 80%.

`CCN(CC)S(=O)(=O)c1ccc2nnc(N[C@H](C)c3ccccc3)n2c1` [Example 20]: the EC50 is below 1000 nM and the maximum response (Emax) was above 80%.

For `O=S(=O)(c1ccccc1)c1ccc2nnc(NC[C@H](O)C3CCCCC3)n2c1` [Example 69], the EC50 is below 1000 nM and the maximal effect (Emax) is above 80%.

On to `c1ccc(-c2ccc3nc(Nc4ccc(-c5ccccn5)cc4)nn3c2)cc1` [Example 100, 6-phenyl-N-(4-(pyridin-2-yl)phenyl)-[1,2,4]triazolo[1,5-a]pyridin-2-amine], for which the EC50 fell in the range of 1000 to 10000 nM and the Emax lay in the range of 40 to 80%.

For the compound `CCN(CC)S(=O)(=O)c1ccc2nnc(NC3CCCc4ccccc43)n2c1` (stereo not shown) [Example 2], the concentration giving a half-maximal response (EC50) was below 1000 nM and the Emax was above 80%.

As for `O=S(=O)(c1ccccc1)c1ccc2nnc(NCc3ccc(C(F)(F)F)cc3)n2c1` [Example 63], the EC50 is below 1000 nM and the Emax lay within 40 to 80%.

Regarding `O=S(=O)(c1ccccc1)c1ccc2nnc(NCC(O)C3CCCC3)n2c1` (stereo not shown) [Example 73], the EC50 was below 1000 nM and the maximal effect (Emax) was above 80%.

For the compound `CCN(CC)S(=O)(=O)c1ccc2nnc(NCCC(C)C)n2c1` [Example 19], the EC50 is below 1000 nM and the Emax was above 80%.

On to `CCN(CC)S(=O)(=O)c1ccc2nnc(NC3CCc4ccccc4C3)n2c1` (stereo not shown) [Example 32], for which the EC50 was 1000 to 10000 nM and the Emax was in the range of 40 to 80%.

On to `CCN(CC)S(=O)(=O)c1ccc2nnc(NCC(O)COC)n2c1` (stereo not shown) [Example 24], for which the EC50 lay in the range of 1000 to 10000 nM and the Emax is above 80%.

In the case of `O=S(=O)(c1ccccc1)c1ccc2nc(NC[C@@H](O)c3ccccc3)nn2c1` [Example 85], the EC50 is below 1000 nM and the Emax was above 80%.

Regarding `CN1CCC(c2ccc(CNc3nc4ccc(S(=O)(=O)c5ccccc5)cn4n3)cc2)CC1` [Example 93], the concentration for a half-maximal effect (EC50) is below 1000 nM and the Emax is above 80%.

For the compound `CCN(CC)S(=O)(=O)c1ccc2nnc(NCC(=O)Nc3ccc(C)c(C)c3)n2c1` [Example 22], the EC50 was below 1000 nM and the Emax lay within 40 to 80%.

As to `CCN(CC)S(=O)(=O)c1ccc2nnc(NCC(C)C)n2c1` [Example 17], the EC50 was below 1000 nM and the Emax was above 80%.

Take `CCN(CC)S(=O)(=O)c1ccc2nnc(NC(=O)c3ccccc3)n2c1` [Example 12]: the half-maximal effective concentration (EC50) is 1000 to 10000 nM and the Emax was 40 to 80%.

On to `C[C@@H](Nc1nnc2ccc(S(=O)(=O)c3ccccc3)cn12)c1ccccc1` [Example 62, (R)—N-(1-Phenylethyl)-6-(phenylsulfonyl)-[1,2,4]triazolo[4,3-a]pyridin-3-amine], for which the EC50 was below 1000 nM and the maximal effect (Emax) was above 80%.

Regarding `CCN(CC)S(=O)(=O)c1ccc2nnc(N[C@H](C)c3ccc(C)cc3)n2c1` [Example 35], the concentration for a half-maximal effect (EC50) is below 1000 nM and the maximal effect (Emax) was above 80%.

On to `CCN(CC)S(=O)(=O)c1ccc2nnc(NC3CCCC3)n2c1` [Example 26], for which the EC50 is below 1000 nM and the Emax was above 80%.

Turning to `O=C(c1ccc(CNc2nc3ccc(S(=O)(=O)c4ccccc4)cn3n2)cc1)N1CCC1` [Example 91], the EC50 was below 1000 nM and the Emax is 40 to 80%.

For the compound `CC(C)(C)C(=O)OC(CNc1nnc2ccc(S(=O)(=O)c3ccccc3)cn12)C1CCCCC1` (stereo not shown) [Example 74], the EC50 is below 1000 nM and the Emax is above 80%.

Take `CCN(CC)S(=O)(=O)c1ccc2nnc(N[C@@H](Cc3ccccc3)C(=O)N3CCCCC3)n2c1` [Example 53]: the EC50 was below 1000 nM and the Emax was above 80%.

As for `CCN(CC)S(=O)(=O)c1ccc2nnc(NCc3ccc(OC(C)C)cc3)n2c1` [Example 36], the EC50 was below 1000 nM and the Emax is above 80%.

For the compound `CCN(CC)S(=O)(=O)c1ccc2nnc(N[C@@H](C)c3ccc(C)cc3)n2c1` [Example 38], the EC50 was below 1000 nM and the Emax is above 80%.

As to `CCN(CC)S(=O)(=O)c1ccc2nnc(NCC3CC3)n2c1` [Example 8], the concentration for a half-maximal effect (EC50) was below 1000 nM and the Emax is above 80%.

Consider `CCN(CC)S(=O)(=O)c1ccc2nnc(NCc3ccc(C(F)(F)F)cc3)n2c1` [Example 48], for which the EC50 is below 1000 nM and the maximum response (Emax) was above 80%.

As for `CCN(CC)S(=O)(=O)c1ccc2nnc(NC(C)c3ccc(OC)cc3)n2c1` (stereo not shown) [Example 28], the EC50 was below 1000 nM and the Emax is above 80%.

With `CCN(CC)S(=O)(=O)c1ccc2nnc(N[C@H](C)C3CCCCC3)n2c1` [Example 34], the EC50 is below 1000 nM and the Emax was above 80%.

Take `CCN(CC)S(=O)(=O)c1ccc2nnc(NCc3ccc4c(c3)CCO4)n2c1` [Example 40]: the EC50 is below 1000 nM and the Emax is above 80%.

Consider `C[C@@H](Nc1nc2ccc(S(=O)(=O)c3ccccc3)cn2n1)c1ccccc1` [Example 81], for which the EC50 was below 1000 nM and the Emax was above 80%.
